These results are taken from US10745382B2 (BRISTOL-MYERS SQUIBB COMPANY, priority 2015, dated 2020).

Like-named read-outs stand apart in the source and are kept apart here.

The experiment has as its target T1, PD-1/PD-L1 (Homo sapiens, UniProt Q9NZQ7).
T1 construct: made in house; host or cells: HEK293T
Briefly: PD-1/PD-L1 Homogenous Time-Resolved Fluorescence (HTRF) binding assay. The conditions noted are these: PD-L1-His 10 nM, PD-1-Ig 20 nM, read-out: Range or IC50. In a few lines:
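Detection by europium cryptate anti-Ig plus APC anti-His (1 nM and 20 nM final) with HTRF signal. Buffer was dPBS, 0.1% BSA, 0.05% Tween-20.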
A general note: TR-FRET usually uses a lanthanide donor and a delayed reading to cut background.

T1 sequence (Q9NZQ7 with tags, fused parts or gaps): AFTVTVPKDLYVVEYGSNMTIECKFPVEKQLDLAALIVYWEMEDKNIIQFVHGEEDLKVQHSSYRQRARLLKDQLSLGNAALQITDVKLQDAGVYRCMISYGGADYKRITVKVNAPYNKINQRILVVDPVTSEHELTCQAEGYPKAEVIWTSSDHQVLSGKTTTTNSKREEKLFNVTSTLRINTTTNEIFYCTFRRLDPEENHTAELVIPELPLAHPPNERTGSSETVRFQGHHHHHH

Regarding `Cc1c(OCCCN2CC[C@H](O)C2)cccc1-c1cccc(COc2cc(OCc3cncc(C#N)c3)c(CN3CCCC[C@H]3C(=O)O)cc2Cl)c1Cl` [Example 2304, (S)-1-(5-chloro-4-((2-chloro-3′-(3-((S)-3-hydroxypyrrolidin-1-yl)propoxy)-2′-methyl-[1,1′-biphenyl]-3-yl)methoxy)-2-((5-cyanopyridin-3-yl)methoxy)benzyl)piperidine-2-carboxylic Acid], the IC50 (in general, the concentration needed to halve the response being measured) (value given as range class) was 0.21 to 10 nM.
On the same count and under the same terms, for `Cc1c(OCCCN2CC[C@@H](O)C2)cccc1-c1cccc(COc2cc(OCc3cncc(C#N)c3)c(CNC(C)(CO)CO)cc2Cl)c1Cl` [Example 2305, (R)-5-((4-chloro-5-((2-chloro-3′-(3-(3-hydroxypyrrolidin-1-yl)propoxy)-2′-methyl-[1,1′-biphenyl]-3-yl)methoxy)-2-(((1,3-dihydroxy-2-methylpropan-2-yl)amino)methyl)phenoxy)methyl)nicotinonitrile] the value was 0.21 to 10 nM; for `Cc1c(OCCCN2CCCCC2)cccc1-c1cccc(COc2cc(OCc3cncc(C#N)c3)c(CN3CCCC[C@H]3C(=O)O)cc2Cl)c1Cl` [Example 2306, (S)-1-(5-chloro-4-((2-chloro-2′-methyl-3′-(3-(piperidin-1-yl)propoxy)-[1,1′-biphenyl]-3-yl)methoxy)-2-((5-cyanopyridin-3-yl)methoxy)benzyl)piperidine-2-carboxylic Acid], 0.21 to 10 nM.
Consider `Cc1c(OCCCNC[C@H](O)CO)cccc1-c1cccc(COc2cc(OCc3cncc(C#N)c3)c(CNC(C)(CO)CO)cc2Cl)c1Cl` [Example 2307, (S)-5-((4-chloro-5-((2-chloro-3′-(3-((2,3-dihydroxypropyl)amino)propoxy)-2′-methyl-[1,1′-biphenyl]-3-yl)methoxy)-2-(((1,3-dihydroxy-2-methylpropan-2-yl)amino)methyl)phenoxy)methyl)nicotinonitrile], for which, under “value given as range class”, the concentration for half-maximal inhibition (IC50) fell in the range of 0.21 to 10 nM.
On the same count and under the same terms, for `Cc1c(OCCCN2CCCCC2)cccc1-c1cccc(COc2cc(OCc3cncc(C#N)c3)c(CNC(C)(CO)CO)cc2Cl)c1Cl` [Example 2308, 5-((4-chloro-5-((2-chloro-2′-methyl-3′-(3-(piperidin-1-yl)propoxy)-[1,1′-biphenyl]-3-yl)methoxy)-2-(((1,3-dihydroxy-2-methylpropan-2-yl)amino)methyl)phenoxy)methyl)nicotinonitrile] the value was 0.21 to 10 nM.
Take `Cc1c(OCCCN2CCOCC2)cccc1-c1cccc(COc2cc(OCc3cncc(C#N)c3)c(CN3CCCC[C@H]3C(=O)O)cc2Cl)c1Cl` [Example 2309, (S)-1-(5-chloro-4-((2-chloro-2′-methyl-3′-(3-morpholinopropoxy)-[1,1′-biphenyl]-3-yl)methoxy)-2-((5-cyanopyridin-3-yl)methoxy)benzyl)piperidine-2-carboxylic Acid]: the IC50 (numeric IC50) was 3 nM.
On to `Cc1c(OCCCN2CCS(=O)(=O)CC2)cccc1-c1cccc(COc2cc(OCc3cncc(C#N)c3)c(CN3CCCC[C@H]3C(=O)O)cc2Cl)c1Cl` [Example 2310, (S)-1-(5-chloro-4-((2-chloro-3′-(3-(1,1-dioxidothiomorpholino)propoxy)-2′-methyl-[1,1′-biphenyl]-3-yl)methoxy)-2-((5-cyanopyridin-3-yl)methoxy)benzyl)piperidine-2-carboxylic Acid], for which, where the note is “value given as range class”, the half-maximal inhibitory concentration (IC50) lay within 0.21 to 10 nM.
The same measure, in the same setting: for `CC(=O)N[C@H]1CCN(CCCOc2cccc(-c3cccc(COc4cc(OCc5cncc(C#N)c5)c(CNC(CO)CO)cc4Cl)c3Cl)c2C)C1` [Example 2311, (S)—N-(1-(3-((2′-chloro-3′-((2-chloro-5-((5-cyanopyridin-3-yl)methoxy)-4-(((1,3-dihydroxypropan-2-yl)amino)methyl)phenoxy)methyl)-2-methyl-[1,1′-biphenyl]-3-yl)oxy)propyl)pyrrolidin-3-yl)acetamide] the value was 0.21 to 10 nM; for `Cc1c(OCCCN2CC[C@@H](O)C2)cccc1-c1cccc(COc2cc(OCc3cncc(C#N)c3)c(CN(CCc3cncc(C#N)c3)C(CO)CO)cc2Cl)c1Cl` [Example 2312, (R)-5-(2-((5-chloro-4-((2-chloro-3′-(3-(3-hydroxypyrrolidin-1-yl)propoxy)-2′-methyl-[1,1′-biphenyl]-3-yl)methoxy)-2-((5-cyanopyridin-3-yl)methoxy)benzyl)(1,3-dihydroxypropan-2-yl)amino)ethyl)nicotinonitrile], 0.21 to 10 nM; for `C=CCOc1cc(OCc2cccc(-c3cccc(OCCCN4CC[C@@H](O)C4)c3C)c2Cl)c(Cl)cc1CNC(CO)CO` [Example 2313, (R)-2-((2-(allyloxy)-5-chloro-4-((2-chloro-3′-(3-(3-hydroxypyrrolidin-1-yl)propoxy)-2′-methyl-[1,1′-biphenyl]-3-yl)methoxy)benzyl)amino)propane-1,3-diol], 0.21 to 10 nM.
On the same count and under the same terms, for `Cc1c(OCCCN2CC[C@@H](O)C2)cccc1-c1cccc(COc2cc(OCC#N)c(CNC(CO)CO)cc2Cl)c1Cl` [Example 2314, (R)-2-(4-chloro-5-((2-chloro-3′-(3-(3-hydroxypyrrolidin-1-yl)propoxy)-2′-methyl-[1,1′-biphenyl]-3-yl)methoxy)-2-(((1,3-dihydroxypropan-2-yl)amino)methyl)phenoxy)acetonitrile] the value was 0.21 to 10 nM; for `Cc1c(OCCCN2CC[C@@H](O)C2)cccc1-c1cccc(COc2cc(OCC(=N)N3CC[C@@H](O)C3)c(CNC(CO)CO)cc2Cl)c1Cl` [Example 2315, 2-((5-chloro-4-((2-chloro-3′-(3-((R)-3-hydroxypyrrolidin-1-yl)propoxy)-2′-methyl-[1,1′-biphenyl]-3-yl)methoxy)-2-(2-((R)-3-hydroxypyrrolidin-1-yl)-2-iminoethoxy)benzyl)amino)propane-1,3-diol], 0.21 to 10 nM; for `Cc1c(OCCCN2CC[C@@H](O)C2)cccc1-c1cccc(COc2cc(OCC(N)=O)c(CNC(CO)CO)cc2Cl)c1Cl` [Example 2316, (R)-2-(4-chloro-5-((2-chloro-3′-(3-(3-hydroxypyrrolidin-1-yl)propoxy)-2′-methyl-[1,1′-biphenyl]-3-yl)methoxy)-2-(((1,3-dihydroxypropan-2-yl)amino)methyl)phenoxy)acetamide], 0.21 to 10 nM.
With `Cc1c(OCCCN2CC[C@@H](O)C2)cccc1-c1cccc(COc2cc(OCC(=O)N(C)C)c(CNC(CO)CO)cc2Cl)c1Cl` [Example 2317, (R)-2-(4-chloro-5-((2-chloro-3′-(3-(3-hydroxypyrrolidin-1-yl)propoxy)-2′-methyl-[1,1′-biphenyl]-3-yl)methoxy)-2-(((1,3-dihydroxypropan-2-yl)amino)methyl)phenoxy)-N,N-dimethylacetamide], the concentration for half-maximal inhibition (IC50) (value given as range class) lay in the range of 0.21 to 10 nM.
Same read-out and setting: for `Cc1c(OCCCN2CC[C@@H](O)C2)cccc1-c1cccc(COc2cc(OCC(F)F)c(CNC(CO)CO)cc2Cl)c1Cl` [Example 2318, (R)-2-((5-chloro-4-((2-chloro-3′-(3-(3-hydroxypyrrolidin-1-yl)propoxy)-2′-methyl-[1,1′-biphenyl]-3-yl)methoxy)-2-(2,2-difluoroethoxy)benzyl)amino)propane-1,3-diol] the value was 0.21 to 10 nM.
With `Cc1c(OCCCN2CC[C@@H](O)C2)cccc1-c1cccc(COc2cc(OCC3CC3)c(CNC(CO)CO)cc2Cl)c1Cl` [Example 2319, (R)-2-((5-chloro-4-((2-chloro-3′-(3-(3-hydroxypyrrolidin-1-yl)propoxy)-2′-methyl-[1,1′-biphenyl]-3-yl)methoxy)-2-(cyclopropylmethoxy)benzyl)amino)propane-1,3-diol], the IC50 (value given as range class) lay within 0.21 to 10 nM.
Still for that read-out and setting: the value for `Cc1c(OCCCN2CC[C@@H](O)C2)cccc1-c1cccc(COc2cc(OCC3CC3(F)F)c(CNC(CO)CO)cc2Cl)c1Cl` (stereo partly drawn) [Example 2320, 2-((5-chloro-4-((2-chloro-3′-(3-((R)-3-hydroxypyrrolidin-1-yl)propoxy)-2′-methyl-[1,1′-biphenyl]-3-yl)methoxy)-2-((2,2-difluorocyclopropyl)methoxy)benzyl)amino)propane-1,3-diol] was 0.21 to 10 nM; that for `CC(C)=CCOc1cc(OCc2cccc(-c3cccc(OCCCN4CC[C@@H](O)C4)c3C)c2Cl)c(Cl)cc1CNC(CO)CO` [Example 2321, (R)-2-((5-chloro-4-((2-chloro-3′-(3-(3-hydroxypyrrolidin-1-yl)propoxy)-2′-methyl-[1,1′-biphenyl]-3-yl)methoxy)-2-((3-methylbut-2-en-1-yl)oxy)benzyl)amino)propane-1,3-diol] was 0.21 to 10 nM.
On to `Cc1c(COc2cc(OCc3cncc(C#N)c3)c(CNC(CO)CO)cc2Cl)cccc1-c1cccc(OC[C@H]2CCNC2)c1C` [Example 2323, (S)-5-((4-chloro-2-(((1,3-dihydroxypropan-2-yl)amino)methyl)-5-((2,2′-dimethyl-3′-(pyrrolidin-3-ylmethoxy)-[1,1′-biphenyl]-3-yl)methoxy)phenoxy)methyl)nicotinonitrile], for which the half-inhibitory concentration (IC50) (value given as range class) is 0.21 to 10 nM.
The same measure, in the same setting: for `Cc1c(COc2cc(OCc3cncc(C#N)c3)c(CNC(C)(CO)CO)cc2Cl)cccc1-c1cccc(OCCCN2CC[C@@H](O)C2)c1C` [Example 2324, (R)-5-((4-chloro-2-(((1,3-dihydroxy-2-methylpropan-2-yl)amino)methyl)-5-((3′-(3-(3-hydroxypyrrolidin-1-yl)propoxy)-2,2′-dimethyl-[1,1′-biphenyl]-3-yl)methoxy)phenoxy)methyl)nicotinonitrile] the value was 0.21 to 10 nM.
Regarding `Cc1c(COc2cc(OCc3cncc(C#N)c3)c(CN(C)C(CO)CO)cc2Cl)cccc1-c1cccc(OCCCN2CC[C@@H](O)C2)c1C` [Example 2325, (R)-5-((4-chloro-2-(((1,3-dihydroxypropan-2-yl)(methyl)amino)methyl)-5-((3′-(3-(3-hydroxypyrrolidin-1-yl)propoxy)-2,2′-dimethyl-[1,1′-biphenyl]-3-yl)methoxy)phenoxy)methyl)nicotinonitrile], where the note is “value given as range class”, the IC50 fell in the range of 0.21 to 10 nM.
